Test in all cases: NCI anticancer screen, dose series, 48 h
Assay [1] has as its system SW-620 colon.
The test system of assay [2] is HCT-116 colon.
Assay [3] concerns MCF7 breast.
In assay [4] the test system is A498 renal.
For assay [5], the system named is HS 578T breast.
The subject of assay [6] is DU-145 prostate.
Assay [7] has as its system ACHN renal.
The test system of assay [8] is NCI-H226 lung.
In assay [9] the test system is SF-295 CNS.
For assay [10], the system named is RXF 393 renal.

Each structure is given as a SMILES string. Where “and” joins values, the source holds several entries; their conditions need not be identical. Equal values may be shown once.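 These data come from cells grown in 96-well plates and exposed to compound for 48 hours at five concentrations. Abbreviation: GI50, concentration required for 50% inhibition of growth. At the TGI there is no net growth.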

In the case of `Clc1ccc2c(NCCNc3nc(N4CCOCC4)nc4ccccc34)ccnc2c1`, the GI50 was 2.97 µM in assay [1]; 1.66 µM in [2]; 3.82 µM in [3]; 1.87 µM in assay [4]; 2.58 µM in assay [5]; 4.99 µM in assay [6]. Also, the GI50 was 1.75 µM in assay [7], 1.68 µM in [8], 1.75 µM in [9] and 1.61 µM in assay [10]. The TGI in assay [1] turned out to be 10.8 µM; in [2], 3.3 µM; in [3], 17.2 µM; in assay [4], 4.62 µM; in assay [5], 7.71 µM; in [6] it was 17 µM. For the same compound, the TGI was 3.49 µM in [7], 3.57 µM in assay [8], 3.24 µM in [9] and 3.63 µM in assay [10].
In the case of `CN1CCCCC1CCN1c2ccccc2Sc2ccc(Br)cc21` (stereo not given), the GI50 in [1] is 2.08 µM; in assay [2], 1.88 µM; in assay [3], 2.06 µM; in assay [4], 2.21 µM; in assay [5], 2.06 µM; in assay [6], 3.7 µM. Also, the GI50 in assay [7] was 3.54 µM; in [8], 11.8 µM; in assay [9] it was 2.13 µM; in [10], 2.18 µM. For the same compound, the TGI in [1] was found to be 5.04 µM; in [2], 3.67 µM; in assay [3] it was 4.27 µM; in assay [4], 7.08 µM; in [5] it was 5.85 µM; in assay [6] it was 12.6 µM. In addition, the TGI in assay [7] is 11.9 µM; in assay [8], 28.8 µM; in assay [9] it was 4.94 µM; in [10] it was 6.46 µM.
On to `CCCCNc1ncnc2c1cnn2-c1ccccc1`, for which the GI50 was 0.709 µM in assay [1]; 1.32 µM in assay [2]; 2.11 µM in [3]; 4.32 µM in assay [4]; 3.48 µM in [5]; 3.47 µM in [6]. Moreover, the GI50 in assay [7] was 9.6 µM; in assay [8] it was 13.7 µM; in [9], 1.88 µM; in [10] it was 1.97 µM. Further, the TGI in assay [1] was greater than 100 µM; in assay [2] it was greater than 100 µM; in assay [3], greater than 100 µM; in [4] it was greater than 100 µM; in assay [5], 58.2 µM; in assay [6] it was 32.1 µM. For the same compound, the TGI was greater than 100 µM in assay [7], 86.1 µM in assay [8], 20.3 µM in assay [9] and 8.26 µM in assay [10].
For the compound `Cc1cc(C)c2nc3c(c(C(O)C4CCCCN4)c2c1)CC/C3=C\c1ccc(Cl)cc1` (stereo not given), the TGI in [1], in assay [2], in [3], in [4], in [5] and in [6] was greater than 100 µM throughout. Also, the TGI in [7], in assay [8], in assay [9] and in [10] was greater than 100 µM in each case.
As for `CC1(C)CC(O)CC(C)(C)N1O`, the TGI in assay [1], in assay [2], in assay [3], in assay [4], in assay [5] and in assay [6] was greater than 100 µM each time. Moreover, the TGI in [7], in [8], in [9] and in assay [10] was greater than 100 µM in each case. Further, the GI50 in assay [5] and in assay [8] was greater than 100 µM each time.
Turning to `O=c1[nH]c2cc(Cl)ccc2nc1/C(=N\Nc1ccccc1)C(O)c1ccc2c(c1)OCO2` (stereo not given), the TGI in assay [1], in [2], in assay [3], in assay [4], in [5] and in assay [6] was greater than 100 µM in each case. The TGI in assay [7], in [8], in [9] and in assay [10] was greater than 100 µM in each case.
As for `COC(=O)[C@@]12OC[C@]34[C@H]([C@@H](O)[C@@H]1O)[C@@]1(C)CC(=O)C(O)=C(C)[C@@H]1C[C@H]3OC(=O)[C@H](OC(=O)/C=C(\C)C(C)C)[C@@H]24`, the TGI is 0.0144 µM and 0.0478 µM in [2]; 0.021 µM and 0.0264 µM in assay [3]; 0.0109 µM and 0.022 µM in assay [4]; 0.0209 µM and 0.0273 µM in assay [5]; 0.0451 µM and 0.0293 µM in [6]; 0.026 µM and 0.0124 µM and 0.0245 µM in assay [7]. Moreover, the TGI is 0.00771 µM and 0.0236 µM in [8]; 0.0345 µM and 0.0582 µM in assay [9]; 0.0303 µM and 0.0297 µM in assay [10]. Also, the GI50 in [4] was 0.00487 µM; in [5], 0.02 µM; in assay [6] it was 0.02 µM; in assay [7] it was 0.02 µM.

The values above are taken from PubChem BioAssay (NCI).
